Where no end group is shown, it is not given here.
Columns and labels:
[1] = test system: low grade prostate cancer (Gleason grade 6); experiment: clinical study: hemi-prostate multifocal cancer with increase in Gleason primary pattern (Example 2); format: in vivo, human; details: for % Imp. (hemi-prostate multifocal cancer with increase in Gleason primary pattern): vs active surveillance control
Experimental: (§1) In a series of clinical studies a total of 146 men with low grade prostate cancer (Gleason grade 6) were treated in the following manner. Patients were randomized and treated with a transrectal intraprostatic single injection of a composition comprising 2.5 mg FT (n=49), or a composition comprising 15 mg FT (n=48), or were subject to control active surveillance (n=49). After the first follow-up biopsy at 45 days post-randomization, 18 patients in the control active surveillance group crossed over to a single administration of a composition comprising 2.5 mg FT. Patients were followed for 5 years including biopsies at baseline, 45 days, 18, 36, and 60 months, and urological evaluations with PSA every 6 months. Patients with Gleason grade increase or who elected surgical or radiotherapeutic intervention exited the study and were still included in the data analysis. Percentage of normal biopsies in the baseline focus quadrant and median tumor grade and volume were assessed; progression was measured by clinical and pathological outcomes including Gleason grade in the entire prostate sampled as well as for the treated prostate lobe. Interventions associated with Gleason grade increase as well as total incidence for any intervention was assessed.

[2] = test system: low grade prostate cancer (Gleason grade 6); experiment: clinical study: cancer treatment with new multifocal and an increase in Gleason grade primary pattern in the hemi-prostate (Example 4); format: in vivo, human; details: for % Imp. (cancer treatment with new multifocal and an increase in Gleason grade primary pattern in the hemi-prostate): vs active surveillance control
Experimental: as §1
This example evaluated the percentage of patients having conventional cancer treatment (surgery, radiotherapy, or chemotherapy), and having multifocal prostate cancer in the lobe (or hemi-prostate) in which the foci were initially treated with Gleason primary pattern (cancer treatment with new multifocal and an increase in Gleason grade primary pattern in the hemi-prostate).

[3] = test system: low grade prostate cancer (Gleason grade 6); experiment: clinical study: hemi-prostate multifocal cancer with Gleason upgrade (Example 1); format: in vivo, human; details: for % Imp. (hemi-prostate multifocal cancer with Gleason upgrade): vs active surveillance control
Experimental: as §1

[4] = test system: prostate glandular epithelial cells; experiment: tissue culture genetic array, in vitro; format: cell-based
Source text: Use of FT is a preferred embodiment. FT is a new molecular entity which in vitro stimulates caspase pathways (activation of caspases 7, 8, and 10, caspase recruitment domains 6, 11, and 14, and DIABLO), tumor necrosis factor pathways (activation of TNF1, TNFSF6, TNFSF8, TNFSF9, CD70 ligands, and TNFRSF19L, TNFRSF25, TRAF2, TRAF3, TRAF4, TRAF6 receptors), and BCL pathways (activation of BIK, HRK, BCL2L10 and BCL3) in prostate glandular epithelial cells, based on tissue culture genetic array data. […] The apoptotic process leads to typical ultrastructural progressive changes of membranous disruption and swelling, progressively deepening nuclear invaginations with eventual membranous bleb formations and cell death and fragmentation into apoptotic bodies. Histologically, typical apoptotic changes with positive immunohistochemical staining of markers for apoptosis are found throughout the injected areas for up to several weeks after treatment.

[5] = test system: low grade prostate cancer (Gleason grade 6); experiment: clinical study: cancer treatment with new multifocal with increased Gleason grade in the hemi-prostate (Example 3); format: in vivo, human; details: for % Imp. (cancer treatment with new multifocal with increased Gleason grade in the hemi-prostate): vs active surveillance control
Experimental: as §1
This example evaluated the percentage of patients who had conventional cancer treatment (e.g., surgery, radiotherapy, and/or chemotherapy), and who and who had multifocal prostate cancer in the lobe (or hemi-prostate) in which the foci were initially treated with Gleason upgrade (cancer treatment with new multifocal with increased Gleason grade in the hemi-prostate).

[6] = FT 2.5 mg, single transrectal intraprostatic injection, <= 18 mos from treatment
[7] = FT 2.5 mg, single transrectal intraprostatic injection, <= 36 mos from treatment
[8] = FT 2.5 mg, single transrectal intraprostatic injection, <= 48 mos from treatment
[9] = FT 15 mg, single transrectal intraprostatic injection, <= 18 mos from treatment
[10] = FT 15 mg, single transrectal intraprostatic injection, <= 36 mos from treatment
[11] = FT 15 mg, single transrectal intraprostatic injection, <= 48 mos from treatment
[12] = Pooled FT (2.5 mg and 15 mg), <= 18 mos from treatment
[13] = Pooled FT (2.5 mg and 15 mg), <= 36 mos from treatment
[14] = Pooled FT (2.5 mg and 15 mg), <= 48 mos from treatment

## Ile-Asp-Gln-Gln-Val-Leu-Ser-Arg-Ile-Lys-Leu-Glu-Ile-Lys-Arg-Cys-Leu (IDQQVLSRIKLEIKRCL; also: trifluoroacetate salt) [FT]
[1]; [6]
  percentage of patients with hemi-prostate multifocal cancer with increase in Gleason primary pattern: 0%
[1]; [7]
  percentage of patients with hemi-prostate multifocal cancer with increase in Gleason primary pattern: 0%
[1]; [8]
  percentage of patients with hemi-prostate multifocal cancer with increase in Gleason primary pattern: 0%
[1]; FT 2.5 mg, <= 18 mos
  % Imp. (hemi-prostate multifocal cancer with increase in Gleason primary pattern): 100%
[1]; FT 2.5 mg, <= 36 mos
  % Imp. (hemi-prostate multifocal cancer with increase in Gleason primary pattern): 100%
[1]; FT 2.5 mg, <= 48 mos
  % Imp. (hemi-prostate multifocal cancer with increase in Gleason primary pattern): 100%
[1]; [9]
  percentage of patients with hemi-prostate multifocal cancer with increase in Gleason primary pattern: 2.9%
[1]; [10]
  percentage of patients with hemi-prostate multifocal cancer with increase in Gleason primary pattern: 4.5%
[1]; [11]
  percentage of patients with hemi-prostate multifocal cancer with increase in Gleason primary pattern: 6.7%
[1]; FT 15 mg, <= 18 mos
  % Imp. (hemi-prostate multifocal cancer with increase in Gleason primary pattern): 76.8%
[1]; FT 15 mg, <= 36 mos
  % Imp. (hemi-prostate multifocal cancer with increase in Gleason primary pattern): 79%
[1]; FT 15 mg, <= 48 mos
  % Imp. (hemi-prostate multifocal cancer with increase in Gleason primary pattern): 75.5%
[1]; [12]
  percentage of patients with hemi-prostate multifocal cancer with increase in Gleason primary pattern: 1.4%
[1]; [13]
  percentage of patients with hemi-prostate multifocal cancer with increase in Gleason primary pattern: 2.2%
[1]; [14]
  percentage of patients with hemi-prostate multifocal cancer with increase in Gleason primary pattern: 3.4%
[1]; Pooled FT, <= 18 mos
  % Imp. (hemi-prostate multifocal cancer with increase in Gleason primary pattern): 88.8%
[1]; Pooled FT, <= 36 mos
  % Imp. (hemi-prostate multifocal cancer with increase in Gleason primary pattern): 89.7%
[1]; Pooled FT, <= 48 mos
  % Imp. (hemi-prostate multifocal cancer with increase in Gleason primary pattern): 87.5%
[2]; [6]
  percentage of patients with cancer treatment with new multifocal and an increase in Gleason grade primary pattern in the hemi-prostate: 0%
[2]; [7]
  percentage of patients with cancer treatment with new multifocal and an increase in Gleason grade primary pattern in the hemi-prostate: 0%
[2]; [8]
  percentage of patients with cancer treatment with new multifocal and an increase in Gleason grade primary pattern in the hemi-prostate: 0%
[2]; FT 2.5 mg, <= 18 mos
  % Imp. (cancer treatment with new multifocal and an increase in Gleason grade primary pattern in the hemi-prostate): 100%
[2]; FT 2.5 mg, <= 36 mos
  % Imp. (cancer treatment with new multifocal and an increase in Gleason grade primary pattern in the hemi-prostate): 100%
[2]; FT 2.5 mg, <= 48 mos
  % Imp. (cancer treatment with new multifocal and an increase in Gleason grade primary pattern in the hemi-prostate): 100%
[2]; [9]
  percentage of patients with cancer treatment with new multifocal and an increase in Gleason grade primary pattern in the hemi-prostate: 2.6%
[2]; [10]
  percentage of patients with cancer treatment with new multifocal and an increase in Gleason grade primary pattern in the hemi-prostate: 3.6%
[2]; [11]
  percentage of patients with cancer treatment with new multifocal and an increase in Gleason grade primary pattern in the hemi-prostate: 4.2%
[2]; FT 15 mg, <= 18 mos
  % Imp. (cancer treatment with new multifocal and an increase in Gleason grade primary pattern in the hemi-prostate): 75.2%
[2]; FT 15 mg, <= 36 mos
  % Imp. (cancer treatment with new multifocal and an increase in Gleason grade primary pattern in the hemi-prostate): 79.5%
[2]; FT 15 mg, <= 48 mos
  % Imp. (cancer treatment with new multifocal and an increase in Gleason grade primary pattern in the hemi-prostate): 77.7%
[2]; [12]
  percentage of patients with cancer treatment with new multifocal and an increase in Gleason grade primary pattern in the hemi-prostate: 1.3%
[2]; [13]
  percentage of patients with cancer treatment with new multifocal and an increase in Gleason grade primary pattern in the hemi-prostate: 1.7%
[2]; [14]
  percentage of patients with cancer treatment with new multifocal and an increase in Gleason grade primary pattern in the hemi-prostate: 2.1%
[2]; Pooled FT, <= 18 mos
  % Imp. (cancer treatment with new multifocal and an increase in Gleason grade primary pattern in the hemi-prostate): 87.6%
[2]; Pooled FT, <= 36 mos
  % Imp. (cancer treatment with new multifocal and an increase in Gleason grade primary pattern in the hemi-prostate): 90.3%
[2]; Pooled FT, <= 48 mos
  % Imp. (cancer treatment with new multifocal and an increase in Gleason grade primary pattern in the hemi-prostate): 88.8%
[3]; [6]
  percentage of patients with hemi-prostate multifocal cancer with Gleason upgrade: 8.6%
[3]; [7]
  percentage of patients with hemi-prostate multifocal cancer with Gleason upgrade: 16.7%
[3]; [8]
  percentage of patients with hemi-prostate multifocal cancer with Gleason upgrade: 42.9%
[3]; FT 2.5 mg, <= 18 mos
  % Imp. (hemi-prostate multifocal cancer with Gleason upgrade): 54.26%
[3]; FT 2.5 mg, <= 36 mos
  % Imp. (hemi-prostate multifocal cancer with Gleason upgrade): 53.2%
[3]; FT 2.5 mg, <= 48 mos
  % Imp. (hemi-prostate multifocal cancer with Gleason upgrade): 5.7%
[3]; [9]
  percentage of patients with hemi-prostate multifocal cancer with Gleason upgrade: 5.7%
[3]; [10]
  percentage of patients with hemi-prostate multifocal cancer with Gleason upgrade: 9.1%
[3]; [11]
  percentage of patients with hemi-prostate multifocal cancer with Gleason upgrade: 13.3%
[3]; FT 15 mg, <= 18 mos
  % Imp. (hemi-prostate multifocal cancer with Gleason upgrade): 69.7%
[3]; FT 15 mg, <= 36 mos
  % Imp. (hemi-prostate multifocal cancer with Gleason upgrade): 74.5%
[3]; FT 15 mg, <= 48 mos
  % Imp. (hemi-prostate multifocal cancer with Gleason upgrade): 70.8%
[3]; [12]
  percentage of patients with hemi-prostate multifocal cancer with Gleason upgrade: 7.1%
[3]; [13]
  percentage of patients with hemi-prostate multifocal cancer with Gleason upgrade: 13.0%
[3]; [14]
  percentage of patients with hemi-prostate multifocal cancer with Gleason upgrade: 27.6%
[3]; Pooled FT, <= 18 mos
  % Imp. (hemi-prostate multifocal cancer with Gleason upgrade): 62.2%
[3]; Pooled FT, <= 36 mos
  % Imp. (hemi-prostate multifocal cancer with Gleason upgrade): 63.6%
[3]; Pooled FT, <= 48 mos
  % Imp. (hemi-prostate multifocal cancer with Gleason upgrade): 39.3%
[4]
  effect on BCL pathways (activation of BIK, HRK, BCL2L10 and BCL3): stimulates
  effect on caspase pathways (activation of caspases 7, 8, and 10, caspase recruitment domains 6, 11, and 14, and DIABLO): stimulates
  effect on tumor necrosis factor pathways (activation of TNF1, TNFSF6, TNFSF8, TNFSF9, CD70 ligands, and TNFRSF19L, TNFRSF25, TRAF2, TRAF3, TRAF4, TRAF6 receptors): stimulates
[5]; [6]
  percentage of patients with cancer treatment with new multifocal with increased Gleason grade in the hemi-prostate: 4.9%
[5]; [7]
  percentage of patients with cancer treatment with new multifocal with increased Gleason grade in the hemi-prostate: 10%
[5]; [8]
  percentage of patients with cancer treatment with new multifocal with increased Gleason grade in the hemi-prostate: 17.4%
[5]; FT 2.5 mg, <= 18 mos
  % Imp. (cancer treatment with new multifocal with increased Gleason grade in the hemi-prostate): 69%
[5]; FT 2.5 mg, <= 36 mos
  % Imp. (cancer treatment with new multifocal with increased Gleason grade in the hemi-prostate): 57.4%
[5]; FT 2.5 mg, <= 48 mos
  % Imp. (cancer treatment with new multifocal with increased Gleason grade in the hemi-prostate): 44.4%
[5]; [9]
  percentage of patients with cancer treatment with new multifocal with increased Gleason grade in the hemi-prostate: 5.1%
[5]; [10]
  percentage of patients with cancer treatment with new multifocal with increased Gleason grade in the hemi-prostate: 7.1%
[5]; [11]
  percentage of patients with cancer treatment with new multifocal with increased Gleason grade in the hemi-prostate: 8.3%
[5]; FT 15 mg, <= 18 mos
  % Imp. (cancer treatment with new multifocal with increased Gleason grade in the hemi-prostate): 67.7%
[5]; FT 15 mg, <= 36 mos
  % Imp. (cancer treatment with new multifocal with increased Gleason grade in the hemi-prostate): 69.8%
[5]; FT 15 mg, <= 48 mos
  % Imp. (cancer treatment with new multifocal with increased Gleason grade in the hemi-prostate): 73.5%
[5]; [12]
  percentage of patients with cancer treatment with new multifocal with increased Gleason grade in the hemi-prostate: 5%
[5]; [13]
  percentage of patients with cancer treatment with new multifocal with increased Gleason grade in the hemi-prostate: 8.6%
[5]; [14]
  percentage of patients with cancer treatment with new multifocal with increased Gleason grade in the hemi-prostate: 12.8%
[5]; Pooled FT, <= 18 mos
  % Imp. (cancer treatment with new multifocal with increased Gleason grade in the hemi-prostate): 68.4%
[5]; Pooled FT, <= 36 mos
  % Imp. (cancer treatment with new multifocal with increased Gleason grade in the hemi-prostate): 63.4%
[5]; Pooled FT, <= 48 mos
  % Imp. (cancer treatment with new multifocal with increased Gleason grade in the hemi-prostate): 59.1%

From patent US12329802B2, “Focal treatment of prostate cancer” (Nymox Corporation, priority 2019, dated 2025)
